Source: US5866511A, “Stabilized solutions of bromonitromethane and their use as biocides” (Great Lakes Chemical Corporation, priority 1997, dated 1999)
Values after ≈ are worked out from the molar mass of the structure shown. Like-named read-outs stand apart in the source and are kept apart here.

Key:
[1] = system: Pseudomonas aeruginosa; assay: Inhibition of aerobic bacteria in borate buffer (MIC, at least 90% decrease); type: cell-based, Pseudomonas aeruginosa (ATCC 278853)
Method: Borate buffer (25 mM) is adjusted to either pH 7 or 8. The buffer was sterilized by passing through a 0.2 μm filter. Pseudomonas aeruginosa (ATCC 278853) is added to aliquots of the sterile buffer to achieve a final concentration of 10^6 cells/ml. This population is confirmed by serially diluting a sample in sterile phosphate buffer (0.3 mM) and plating onto tryptone glucose extract agar (TGEA; Difco, Detroit, Mich.). Acidified solutions of bromonitromethane are added at various concentrations to the test cultures. Solutions acidified with acids to pHs of between 1.5 and 3.5 are prepared and tested. Positive controls are established by omitting BNM from the test samples.
Following 3 and 24 hour exposure periods at ambient temperature, the resulting test suspensions are diluted and plated as previously described. All plates are enumerated following an incubation period of 24 hr. at 37° C. The minimum inhibitory concentration is defined as the lowest concentration which decreased the microbial population by at least 90% over the period tested.

[2] = Storage stability of aqueous BNM concentrates (bromide ion concentration by ion selective electrodes over 57 days; gas chromatography); type: physicochemical
Method: Determination of enhanced formulation stability for solutions of bromonitromethane.
A study was performed to determine if aqueous concentrates of BNM could be prepared with adequate storage stability to make the material useful as a biocide. […] Less acidified solutions had faster degradation rates.
(§1) BNM (4.58 g, 91.4% assay) was dissolved in 100 mL of deionized water sample 1. A pH 2.37 solution was prepared by adding one drop of sulfuric acid to 100 mL DI water and then adding 4.60 g of the BNM sample 2. A pH 3.76 solution was prepared by adding one drop of 10% aq sodium hydrogen sulfate to 100 mL DI water and then adding 4.60 g of the BNM sample 3. A pH 7.91 solution was prepared by dissolving 4.60 g of the BNM in 100 mL of DI water. A total of 7.2 g of 16.4% NaOH was then added over six minutes to maintain the pH. That solution turned red, indicating the presence of the bromonitromethylate anion and was slowly becoming acidic before the initial bromide value was determined.
Each solution was measured for bromide ion concentration using ion selective electrodes over the course of 57 days to determine the degree of hydrolysis.
An acidified solution of bromonitromethane (BNM) is prepared by adding one drop of sulfuric acid to 100 ml distilled water and then adding 4.60 g of BNM (91.4% assay). The solution is sampled for gas chromatography assay at the beginning and end of these studies to confirm the BNM concentration. Aqueous solutions of BNM were stable when acidified with mineral acids to acidic pHs. The material hydrolyzed at a very slow rate giving a half-life of over ten years.
In a similar manner, acidified bromonitromethane solutions having pHs of about 1.0, 1.5, 2.0, 2.5, 3.0, 3.5 and 4.0 are prepared.

[3] = system: all the organisms; conditions: quoted from Clark et al.; attributed to volatility; cited from earlier work
[4] = CO2 off-gassing during storage of solutions; type: physicochemical; conditions: stabilized (acidified) solutions, storage under standard conditions
Method: as §1
The solutions of the present invention provide the additional benefit of minimizing off-gassing of CO2 during storage of the solution.

[5] = system: Chlorella; assay: Inhibition of algal growth in Allens medium (MIC), Chlorella; type: cell-based
Method: (§2) Pure cultures of the algal genera Anabeana, Chlamydomonas, and Chlorella are used to inoculate Allens medium at pH 7.5 achieving a final concentration of 10^4 cells/ml. All tests are performed on pure cultures. Various concentrations of acidified BNM solution (for each pH across the pH range of 1.5 to 3.5) are added to the culture tubes. Positive controls are established by the omission of BNM.
(§3) The algal cultures are housed in a light box (400 ft. candles; light source--cool white fluorescent tubes; 16 h on/8 h off cycles; 22°-26° C.) for three weeks. The cultures are read weekly noting any turbidity and green coloration of the medium which would indicate a positive result. […] The minimum inhibitory concentration was determined, with representative results being shown below.

[6] = system: Desulfovibrio desulfuricans; assay: Inhibition of sulfate reducing bacterium in API broth (MIC); type: cell-based; conditions: for MIC: read-out: Minimum Inhibitory Concentration
Method: API broth (Difco, Detroit, Mich.) is inoculated with the sulfate reducing bacterium (SRB) Desulfovibrio desulfuricans (10^4 cells/ml). Stable, acidified solutions of bromonitromethane (pH ranging from 1.5 to 3.6) are added to provide bromonitromethane at various concentrations to the SRB cultures. A positive control is constructed in the same fashion […] BNM addition.
The cultures are housed in a GasPak® jar (Becton Dickinson Microbiology Systems, Cockeysville, Md.) under anaerobic conditions (4-10% CO2, <1% O2) at ambient temperature. Cultures are checked weekly for a period of three weeks for visible […] growth indicative of SRB's. […] The minimum inhibitory concentration (MIC), defined as the lowest concentration of BNM which prevented bacterial growth in the API broth tubes, is determined.

[7] = system: Chlamydomonas; assay: Inhibition of algal growth in Allens medium (MIC), Chlamydomonas; type: cell-based
Method: as §2, §3

[8] = system: Pseudomonas aeruginosa; assay: Inhibition of microbial growth in alkaline paper pulp (MIC, at least 90% decrease); type: cell-based, Pseudomonas aeruginosa (ATCC 27853); conditions: read-out: Minimum Inhibitory Concentration
Method: Microbial growth at various points in a paper making system could produce a slime layer which could drop onto the paper sheet causing product damage and machine downtime due to breaks. Biocides are added to keep the microbial growth in check throughout the system. A pulp slurry (1.25% dry basis) was prepared in sodium phosphate buffer (200 mM, pH 8). The slurry is sterilized by autoclaving at 121° C. for 20 min. Pseudomonas aeruginosa (ATCC 27853) is added to the sterile pulp slurries to achieve a final concentration of 10^6 cells/ml. This population is confirmed by serially diluting a sample in sterile phosphate buffer (0.3 mM) and plating onto tryptone glucose extract agar (TGEA; Difco, Detroit, Mich.). Bromonitromethane is added at various concentrations to the test cultures. Controls are established by omitting BNM from the test samples. Following a 3 and 24 hr. exposure period at ambient temperature, the resulting test suspensions are diluted and plated as previously described. All plates are enumerated following an incubation period of 24 hr. at 37° C. The minimum inhibitory concentration is defined as the lowest concentration which decreased the microbial population by at least 90% over the period tested.

[9] = system: Anabeana; assay: Inhibition of algal growth in Allens medium (MIC), Anabeana; type: cell-based
Method: as §2, §3

[10] = system: Aspergillus niger; assay: Inhibition of fungal growth in synthetic cooling water (MIC); type: cell-based, Aspergillus niger (ATCC 9642); conditions: for MIC: 168 h, read-out: Minimum Inhibitory Concentration
Method: Industrial water presents a favorable environment for fungal growth. Fungi can cause many problems in industrial systems including damage to cooling tower wood fill and decks by delignification. Synthetic water is prepared according to the following formula: 0.2 mM MgSO4, 1.2 mM CaCl2 and 1.0 mM NaHCO3. Cooling water presents a favorable environment for microbiological growth. Fungi can damage the cooling tower wood fill and decks by delignification. Synthetic cooling water (CW) is prepared according to the following formula: 0.2 mM MgSO4, 1.2 mM CaCl2, and 1.0 mM NaHCO. The pH is adjusted to either 6 or 8 with either H2 SO4 or NaOH. The resulting solution is then sterilized by passing through a 0.2 μm filter. Various concentrations of acidified BNM solution (pH ranging from 1.5 to 4.0) are added to aliquots of sterile synthetic water. A positive control is prepared by omitting the BNM.
Three day old cultures of Aspergillus niger (ATCC 9642) are harvested from the surface of potato dextrose agar (Difco, Detroit, Mich.) supplemented with tartaric acid. The samples are dosed with A. niger to achieve a concentration of 10^3 CFU/ml. These samples are incubated for one week at ambient temperature. The cultures are plated onto PDA in order to recover any surviving mold. These plates are incubated for three days at ambient temperature. […] The minimum inhibitory concentration (MIC), defined as the lowest concentration of BNM which prevented fungal growth on the PDA plates, is determined.

[11] = system: Pseudomonas aeruginosa; assay: Inhibition of bacterial growth in contaminated paint (MIC); type: cell-based; conditions: for MIC: paint, 25° C., read-out: Minimum Inhibitory Concentration
Method: Water based paints are subject to microbial attack which could produce viscosity loss or offensive odors. Biocides are added to protect the paint from such degradation in the can. A paint sample was artificially contaminated with Pseudomonas aeruginosa, a bacterium which is frequently found in spoiled paint. […] The thermal treatment inactivates residual biocide present in the paint.
Acidified solutions of BNM (pH ranging from 1.5 to 3.5) are diluted with sterile water and added at various concentrations to the paint. Positive controls are established by the omission of BNM addition.
A sterile swab was dipped into the paint and samples are plated onto tryptone glucose extract agar (TGEA; Difco, Detroit, Mich.). Samples of contaminated paint are subsequently swabbed onto sterile TGEA after 1,2,3,7, and 14 days of incubation of 25° C. The plates are incubated for one week at 25° C. Any growth observed on the agar surface during the incubation period is noted. […] The minimum inhibitory concentration (MIC), defined as the lowest concentration of BNM which prevented bacterial growth in the paint, is determined for the inventive solutions.

[12] = 504 h, Allens medium pH 7.5, three weeks, read-out: Minimum Inhibitory Concentration

O=[N+]([O-])CBr [Bromonitromethane, bromonitromethane]
MIC ([1]; 3 h, pH 7, read-out: Minimum Inhibitory Concentration): 0.6 to 3.2 µg/mL (≈ 4.29 to 22.9 µM)
MIC ([1]; borate buffer pH 7, 24 hour exposure, ≥90% decrease, read-out: Minimum Inhibitory Concentration): 0.3 to 0.6 µg/mL (≈ 2.14 to 4.29 µM)
MIC ([1]; borate buffer pH 8, 3 hour exposure, ≥90% decrease, read-out: Minimum Inhibitory Concentration): 0.6 to 3.2 µg/mL (≈ 4.29 to 22.9 µM)
MIC ([1]; borate buffer pH 8, 24 hour exposure, ≥90% decrease, read-out: Minimum Inhibitory Concentration): 0.3 to 0.6 µg/mL (≈ 2.14 to 4.29 µM)
optimum pH for stability ([2]; acidified with strong acids): about 2.3
degradation rate ([2]; most stable solution, acidified with H2SO4 to pH 2.3, 72000 min): 0.4 % BNM per 50 days
hydrolysis (in words) ([2]; non-acidified solutions): hydrolyze rapidly
inhibition of organisms (in words) [3]: inhibited all the organisms . . . but gave inconsistent results
CO2 off-gassing vs non-stabilized solutions [4]: substantially reduce off-gassing (CO2)
MIC [5, 12]: 0.5 to 1 µg/mL (≈ 3.57 to 7.15 µM)
growth inhibition (in words) ([5]; acidified BNM solutions): effective for inhibiting the growth
MIC ([6]; 168 h): < 0.1 µg/mL
MIC ([6]; 336 h, API broth, anaerobic, pH = 2.37, 2 weeks): 0.1 to 0.5 µg/mL (≈ 0.715 to 3.57 µM)
MIC ([6]; 504 h, API broth, anaerobic, pH = 2.37, 3 weeks): 0.1 to 0.5 µg/mL (≈ 0.715 to 3.57 µM)
growth inhibition (in words) ([6]; acidified BNM solutions): effective for inhibiting the growth
MIC [7, 12]: 0.1 to 0.5 µg/mL (≈ 0.715 to 3.57 µM)
growth inhibition (in words) ([7]; acidified BNM solutions): effective for inhibiting the growth
MIC ([8]; pulp slurry pH 8, 3 hr exposure): 1 to 5 µg/mL (≈ 7.15 to 35.7 µM)
MIC ([8]; pulp slurry pH 8, 24 hr exposure): < 1 µg/mL
MIC [9, 12]: 0.5 to 1 µg/mL (≈ 3.57 to 7.15 µM)
growth inhibition (in words) ([9]; acidified BNM solutions, Anabeana): effective for inhibiting the growth
MIC ([10]; synthetic cooling water pH 6, one week): < 1 µg/mL
MIC ([10]; synthetic cooling water pH 8, one week): 1 to 5 µg/mL (≈ 7.15 to 35.7 µM)
growth inhibition (in words) ([10]; acidified BNM solutions): effective for inhibiting the growth
MIC ([11]; 24 h, 1 day incubation): 2 to 5 µg/mL (≈ 14.3 to 35.7 µM)
MIC ([11]; 48 h, 2 days incubation): 2 to 5 µg/mL (≈ 14.3 to 35.7 µM)
MIC ([11]; 72 h, 3 days incubation): 2 to 5 µg/mL (≈ 14.3 to 35.7 µM)
MIC ([11]; 168 h, 7 days incubation): 2 to 5 µg/mL (≈ 14.3 to 35.7 µM)
MIC ([11]; 336 h, 14 days incubation): 2 to 5 µg/mL (≈ 14.3 to 35.7 µM)
growth inhibition (in words) ([11]; acidified BNM solutions): effective for inhibiting the growth
